pEC50: −log10 of the molar value.
Columns and labels:
[1] = target: T1, GPR40 (Homo sapiens, UniProt O14842); experiment: Inositol phosphate accumulation assay (A9_GPR40 cells); type: cell-based; set-up: expressed in transfected cells; host or cells: CHO cells stably transfected with GPR40 and aequorin; conditions: inositol phosphate assay, A9_GPR40 cells, 1 hour; read-out: IP3 EC50
Experimental: Briefly, the Aequorin assays were performed on doubly stable CHO cells expressing GPR40 and Aequorin DNA. […] The luminescence was recorded over a period of 20 seconds with a Microlumat luminometer (Berthold). […] The inositol phosphate assay was performed on an A9 cell line stably transfected with GPR40 (A9_GPR40). The cells were incubated with different concentrations of compounds and [^3H] inositol accumulation was measured after 1 hour.
An A9 cell line stably transfected with GPR40 (A9_GPR40) was used in IP accumulation assays. A9_GPR40 cells were plated in 96-well plates containing 20,000 cells/well in DMEM containing 10% FBS. After the cells attached to the well surface, the media was replaced with inositol free DMEM containing 10% dialyzed FBS and 1 μCi, mL ^3H-inositol and incubated for 16 hours. Compounds were diluted in HBSS/10 mM LiCl containing a desired amount of HSA and added directly to cells. Following 1 hour incubation at 37° C., the media was replaced with 100 μL of 20 mM formic acid to quench the reaction. 50 μL of the extract was then added to 100 μL of SPA beads, incubated overnight, and measured on a TopCount the following day.

[2] = target: T1, GPR40; experiment: Cell-based aequorin assay (CHO cells stably expressing GPR40 and aequorin); set-up: expressed in transfected cells; host or cells: CHO cells stably transfected with GPR40 and aequorin; conditions: activation of human GPR40, CHO cells, 0.01% HSA
Outline: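 CHO cells stably co-expressing GPR40 and aequorin, loaded with coelenterazine (1 ug/mL, 2 h, room temperature) in H/HBSS with 20 mM Hepes and 0.01% fatty acid-free HSA. Serially diluted compounds added; luminescence recorded over 20 s. EC50 from dose-response of maximum relative light units.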

T1 sequence (O14842 whole entry): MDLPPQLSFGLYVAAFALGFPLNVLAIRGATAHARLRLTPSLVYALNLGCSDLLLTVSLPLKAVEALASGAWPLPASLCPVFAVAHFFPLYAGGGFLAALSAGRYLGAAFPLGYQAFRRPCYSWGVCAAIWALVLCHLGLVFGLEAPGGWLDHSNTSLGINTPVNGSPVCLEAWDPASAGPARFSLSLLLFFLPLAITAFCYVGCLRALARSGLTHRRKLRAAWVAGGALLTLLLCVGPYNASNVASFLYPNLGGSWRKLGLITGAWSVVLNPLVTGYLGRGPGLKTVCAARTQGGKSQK

Compound	pEC50 [1]	pEC50 [2]
COc1ccc(F)c(-c2ccc(COc3cccc([C@@H](CC(=O)O)C(F)(F)F)c3)cc2C(C)(C)C)c1 (single isomer, unassigned) [Example 6, (3R)-3-(3-(((2-(1,1-Dimethylethyl)-2′-fluoro-5′-(methyloxy)-1,1′-biphenyl-4-yl)methyl)oxy)phenyl)-4,4,4-trifluorobutanoic acid or (3S)-3-(3-(((2-(1,1-dimethylethyl)-2′-fluoro-5′-(methyloxy)-1,1′-biphenyl-4-yl)methyl)oxy)phenyl)-4,4,4-trifluorobutanoic acid]	< 6.00	5.00 to 6.00
CCCCOc1cc(COc2cccc([C@@H](CC(=O)O)C(F)(F)F)c2)ccc1-c1cc(OC)ccc1F (single isomer, unassigned) [Example 7, (3R)-3-(3-(((2-(Butyloxy)-2′-fluoro-5′-(methyloxy)-1,1′-biphenyl-4-yl)methyl)oxy)phenyl)-4,4,4-trifluorobutanoic acid or (3S)-3-(3-(((2-(butyloxy)-2′-fluoro-5′-(methyloxy)-1,1′-biphenyl-4-yl)methyl)oxy)phenyl)-4,4,4-trifluorobutanoic acid]	5.00 to 6.00	5.00 to 6.00
C[C@H](CC(=O)O)c1cccc(OCc2ccc(-c3cc(O)ccc3F)c(C(C)(C)C)c2)c1 (single isomer, unassigned) [Example 35, (3R)-3-(3-(((2-(1,1-Dimethylethyl)-2′-fluoro-5′-hydroxy-1,1′-biphenyl-4-yl)methyl)oxy)phenyl)butanoic acid or (3S)-3-(3-(((2-(1,1-dimethylethyl)-2′-fluoro-5′-hydroxy-1,1′-biphenyl-4-yl)methyl)oxy)phenyl)butanoic acid]	6.00 to 7.00	6.00 to 7.00
COc1ccc(F)c(-c2ccc(COc3cccc(C(C)CC(=O)O)c3)cc2C(C)(C)C)c1 (single isomer, unassigned) [Example 42, (3R)-3-(3-(((2-(1,1-Dimethylethyl)-2′-fluoro-5′-(methyloxy)-1,1′-biphenyl-4-yl)methyl)oxy)phenyl)butanoic acid or (3S)-3-(3-(((2-(1,1-dimethylethyl)-2′-fluoro-5′-(methyloxy)-1,1′-biphenyl-4-yl)methyl)oxy)phenyl)butanoic acid]	5.00 to 6.00	6.00 to 7.00
CCC[C@H](CC(=O)O)c1cccc(OCc2ccc(-c3cc(OC)ccc3F)c(C(C)(C)C)c2)c1 (single isomer, unassigned) [Example 43, (3R)-3-(3-(((2-(1,1-Dimethylethyl)-2′-fluoro-5′-(methyloxy)-1,1′-biphenyl-4-yl)methyl)oxy)phenyl)hexanoic acid or (3S)-3-(3-(((2-(1,1-dimethylethyl)-2′-fluoro-5′-(methyloxy)-1,1′-biphenyl-4-yl)methyl)oxy)phenyl)hexanoic acid]	6.00 to 7.00	6.00 to 7.00
COc1ccc(F)c(-c2ccc(COc3cccc([C@H](C)CC(=O)O)c3)cc2OC(F)(F)F)c1 (single isomer, unassigned) [Example 46, (3R)-3-(3-(((2′-Fluoro-5′-(methyloxy)-2-((trifluoromethyl)oxy)-1,1′-biphenyl-4-yl)methyl)oxy)phenyl)butanoic acid or (3S)-3-(3-(((2′-fluoro-5′-(methyloxy)-2-((trifluoromethyl)oxy)-1,1′-biphenyl-4-yl)methyl)oxy)phenyl)butanoic acid]	5.00 to 6.00	6.00 to 7.00

More lines, now with the values ahead:

pEC50 [1]	pEC50 [2]	Compound
6.00 to 7.00	6.00 to 7.00	CCCCOc1cc(COc2cccc([C@H](C)CC(=O)O)c2)ccc1-c1cc(OC)ccc1F (single isomer, unassigned) [Example 5, (3R)-3-(3-(((2Butyloxy)-2′-fluoro-5′-(methyloxy)-1,1′-biphenyl-4-yl)methyl)oxy)phenyl)butanoic acid or (3S)-3-(3-(((2-(butyloxy)-2′-fluoro-5′-(methyloxy)-1,1′-biphenyl-4-yl)methyl)oxy)phenyl)butanoic acid]
6.00 to 7.00	6.00 to 7.00	COc1ccc(F)c(-c2ccc(COc3cccc([C@@H](CC(=O)O)C4CC4)c3)cc2C(C)(C)C)c1 (single isomer, unassigned) [Example 8, (3S)-3-Cyclopropyl-3-(3-(((2-(1,1-dimethylethyl)-2′-fluoro-5′-(methyloxy)-1,1′-biphenyl-4-yl)methyl)oxy)phenyl)propanoic acid or (3R)-3-cyclopropyl-3-(3-(((2-(1,1-dimethylethyl)-2′-fluoro-5′-(methyloxy)-1,1′-biphenyl-4-yl)methyl)oxy)phenyl)propanoic acid]
6.00 to 7.00	6.00 to 7.00	COc1cccc(-c2ccc(COc3cccc([C@@H](CC(=O)O)C4CC4)c3)cc2C(C)(C)C)c1 (single isomer, unassigned) [Example 12, (3S)-3-Cyclopropyl-3-(3-(((2-(1,1-dimethylethyl)-3′-(methyloxy)-1,1′-biphenyl-4-yl)methyl)oxy)phenyl)propanoic acid or (3R)-3-cyclopropyl-3-(3-(((2-(1,1-dimethylethyl)-3′-(methyloxy)-1,1′-biphenyl-4-yl)methyl)oxy)phenyl)propanoic acid]
6.00 to 7.00	6.00 to 7.00	CC[C@H](CC(=O)O)c1cccc(OCc2ccc(-c3cc(OC)ccc3F)c(C(C)(C)C)c2)c1 (single isomer, unassigned) [Example 17, (3R)-3-(3-(((2-(1,1-Dimethylethyl)-2′-fluoro-5′-(methyloxy)-1,1′-biphenyl-4-yl)methyl)oxy)phenyl)pentanoic acid or (3S)-3-(3-(((2-(1,1-dimethylethyl)-2′-fluoro-5′-(methyloxy)-1,1′-biphenyl-4-yl)methyl)oxy)phenyl)pentanoic acid]
6.00 to 7.00	6.00 to 7.00	CCCCOc1cc(COc2cccc([C@H](CC)CC(=O)O)c2)ccc1-c1cc(OC)ccc1F (single isomer, unassigned) [Example 18, (3R)-3-(3-(((2-(Butyloxy)-2′-fluoro-5′-(methyloxy)-1,1′-biphenyl-4-yl)methyl)oxy)phenyl)pentanoic acid or (3S)-3-(3-(((2-(butyloxy)-2′-fluoro-5′-(methyloxy)-1,1′-biphenyl-4-yl)methyl)oxy)phenyl)pentanoic acid]
6.00 to 7.00	6.00 to 7.00	CCCCOc1cc(COc2cccc([C@H](C)CC(=O)O)c2)ccc1-c1cccc(OC)c1 (single isomer, unassigned) [Example 20, (3R)-3-(3-(((2-(Butyloxy)-3′-(methyloxy)-1,1′-biphenyl-4-yl)methyl)oxy)phenyl)butanoic acid or (3S)-3-(3-(((2-(butyloxy)-3′-(methyloxy)-1,1′-biphenyl-4-yl)methyl)oxy)phenyl)butanoic acid]
6.00 to 7.00	6.00 to 7.00	CCC[C@H](CC(=O)O)c1cccc(OCc2ccc(-c3cccc(OC)c3)c(C(C)(C)C)c2)c1 (single isomer, unassigned) [Example 33, (3R)-3-(3-(((2-(1,1-Dimethylethyl)-3′-(methyloxy)-1,1′-biphenyl-4-yl)methyl)oxy)phenyl)hexanoic acid or (3S)-3-(3-(((2-(1,1-dimethylethyl)-3′-(methyloxy)-1,1′-biphenyl-4-yl)methyl)oxy)phenyl)hexanoic acid]

From patent publication US8030354B2, “Substituted biphenyl GPR40 modulators” (Amgen Inc., priority 2007, dated 2011)
